Laboratory results from patent publication US20240360179A1, “STAPLED PEPTIDES AND METHODS THEREOF” (FOG PHARMACEUTICALS, INC., priority 2021, published 2024).

Key:
[1] = tested on: beta-catenin driven transcription in HAP1 WT cells; assay: qPCR of beta-catenin driven transcription in HAP1 WT cells (CHIR treated); assay type: cell-based; conditions: 24-hour treatment
[2] = tested on: HAP1 CTNNB1 knockout cells; assay: qPCR in HAP1 beta-catenin KO cells; assay type: cell-based

In the case of Cc1c[nH]c(-c2cnc(NCCNc3ccc(C#N)cn3)nc2-c2ccc(Cl)cc2Cl)n1 [CHIR, CHIR99021, reference compound], the beta-catenin protein levels [1] is reported as “more than two-fold” and the “expression of AXIN2, SP5, or RNF43” value [2] is reported as “neither CHIR nor peptide A and I-66 affected”.
